Measured values taken from ChEMBL document CHEMBL5653615 (J Biol Chem, 2013).

How the values were obtained:
[1] = molecular target: T1, Ephrin type-A receptor 1 (Homo sapiens) (UniProt P21709); assay: Inhibition of human EPHA1 at 500 nM by HotSpot assay relative to control
T1 sequence (whole entry): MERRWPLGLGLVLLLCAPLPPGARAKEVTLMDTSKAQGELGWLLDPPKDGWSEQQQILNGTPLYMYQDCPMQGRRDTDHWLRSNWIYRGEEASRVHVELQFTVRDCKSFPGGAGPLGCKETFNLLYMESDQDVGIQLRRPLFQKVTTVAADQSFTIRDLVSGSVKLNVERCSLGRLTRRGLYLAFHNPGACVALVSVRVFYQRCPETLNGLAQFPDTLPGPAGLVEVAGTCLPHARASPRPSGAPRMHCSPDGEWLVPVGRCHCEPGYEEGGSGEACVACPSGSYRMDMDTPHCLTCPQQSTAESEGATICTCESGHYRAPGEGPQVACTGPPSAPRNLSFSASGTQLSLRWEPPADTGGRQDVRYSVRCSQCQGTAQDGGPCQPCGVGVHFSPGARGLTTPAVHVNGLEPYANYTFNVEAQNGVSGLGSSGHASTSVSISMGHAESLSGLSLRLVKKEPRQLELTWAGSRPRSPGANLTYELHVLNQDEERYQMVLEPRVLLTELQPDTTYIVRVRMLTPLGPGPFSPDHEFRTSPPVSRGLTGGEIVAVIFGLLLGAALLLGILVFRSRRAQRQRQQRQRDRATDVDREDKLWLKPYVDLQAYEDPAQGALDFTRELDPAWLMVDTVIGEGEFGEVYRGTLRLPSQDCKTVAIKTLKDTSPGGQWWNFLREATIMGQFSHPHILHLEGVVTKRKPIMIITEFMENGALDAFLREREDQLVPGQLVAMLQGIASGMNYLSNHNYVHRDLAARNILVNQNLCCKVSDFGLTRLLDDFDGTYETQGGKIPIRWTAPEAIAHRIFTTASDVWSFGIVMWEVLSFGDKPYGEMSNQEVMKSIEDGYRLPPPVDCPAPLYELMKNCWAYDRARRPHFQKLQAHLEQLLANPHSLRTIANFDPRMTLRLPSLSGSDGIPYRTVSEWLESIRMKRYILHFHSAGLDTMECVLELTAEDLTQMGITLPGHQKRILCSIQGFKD

[2] = molecular target: Mitogen-activated protein kinase 14 (Homo sapiens) (UniProt Q16539); assay: Inhibition of human MAPK14 at 500 nM by HotSpot assay relative to control
[3] = molecular target: T2, Mitogen-activated protein kinase kinase kinase 5 (Homo sapiens) (UniProt Q99683); assay: Inhibition of human ASK1 at 500 nM by HotSpot assay relative to control
T2 sequence (whole entry): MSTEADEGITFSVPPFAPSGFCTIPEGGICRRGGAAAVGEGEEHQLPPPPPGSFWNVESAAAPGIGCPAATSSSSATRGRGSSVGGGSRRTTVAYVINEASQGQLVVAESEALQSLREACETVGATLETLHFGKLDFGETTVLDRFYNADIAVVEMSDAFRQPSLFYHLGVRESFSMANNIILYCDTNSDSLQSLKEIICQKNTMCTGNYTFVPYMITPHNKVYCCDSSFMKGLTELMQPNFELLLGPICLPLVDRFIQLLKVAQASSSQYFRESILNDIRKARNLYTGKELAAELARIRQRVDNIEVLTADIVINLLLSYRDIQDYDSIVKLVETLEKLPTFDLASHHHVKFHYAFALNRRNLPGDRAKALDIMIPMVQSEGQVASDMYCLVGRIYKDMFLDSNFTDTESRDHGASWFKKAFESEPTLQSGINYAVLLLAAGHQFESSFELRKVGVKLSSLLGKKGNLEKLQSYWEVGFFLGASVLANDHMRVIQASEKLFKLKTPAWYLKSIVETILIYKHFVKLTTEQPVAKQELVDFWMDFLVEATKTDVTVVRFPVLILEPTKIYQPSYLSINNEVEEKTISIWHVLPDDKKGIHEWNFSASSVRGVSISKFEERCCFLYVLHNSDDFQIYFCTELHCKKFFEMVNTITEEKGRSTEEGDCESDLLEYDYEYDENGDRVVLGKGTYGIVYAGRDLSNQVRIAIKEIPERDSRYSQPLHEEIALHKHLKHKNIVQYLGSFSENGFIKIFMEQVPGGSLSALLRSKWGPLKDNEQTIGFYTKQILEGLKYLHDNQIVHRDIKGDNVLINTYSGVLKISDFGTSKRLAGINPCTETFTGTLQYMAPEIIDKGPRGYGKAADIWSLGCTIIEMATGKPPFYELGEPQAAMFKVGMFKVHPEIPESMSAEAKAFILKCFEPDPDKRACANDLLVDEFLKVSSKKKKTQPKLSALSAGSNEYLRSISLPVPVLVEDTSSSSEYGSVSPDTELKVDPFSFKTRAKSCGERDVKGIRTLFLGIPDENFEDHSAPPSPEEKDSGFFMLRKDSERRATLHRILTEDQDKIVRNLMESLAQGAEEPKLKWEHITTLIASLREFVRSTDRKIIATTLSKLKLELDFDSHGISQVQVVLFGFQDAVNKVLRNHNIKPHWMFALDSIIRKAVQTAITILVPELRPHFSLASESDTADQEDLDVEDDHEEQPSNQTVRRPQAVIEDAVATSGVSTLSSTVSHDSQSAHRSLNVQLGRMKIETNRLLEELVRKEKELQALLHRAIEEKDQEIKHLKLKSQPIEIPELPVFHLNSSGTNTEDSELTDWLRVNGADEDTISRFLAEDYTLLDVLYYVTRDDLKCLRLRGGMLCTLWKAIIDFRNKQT

Sequence of Mitogen-activated protein kinase 14 (Homo sapiens) (Q16539 whole entry): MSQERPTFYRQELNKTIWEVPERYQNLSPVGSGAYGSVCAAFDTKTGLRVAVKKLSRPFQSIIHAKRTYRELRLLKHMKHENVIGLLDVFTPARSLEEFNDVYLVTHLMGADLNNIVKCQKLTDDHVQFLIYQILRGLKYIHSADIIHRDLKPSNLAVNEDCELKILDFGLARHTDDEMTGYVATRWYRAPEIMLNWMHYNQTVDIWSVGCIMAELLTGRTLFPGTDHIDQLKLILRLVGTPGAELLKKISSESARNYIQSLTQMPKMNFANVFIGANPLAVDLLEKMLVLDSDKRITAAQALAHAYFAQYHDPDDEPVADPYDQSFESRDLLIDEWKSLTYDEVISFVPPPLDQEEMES

SMILES | inhibition [1] [%] | inhibition [2] [%] | inhibition [3] [%]
Nc1n[nH]c2nnc(-c3c(-c4ccccc4)nn4ccccc34)cc12 | 7.41 | 5.42 | 0.68
Oc1n[nH]c2nnc(-c3c(-c4ccccc4)nn4ccccc34)cc12 | 4.34 | -1.15 | 0.05
